Here are results for 19 molecules from patent publication US20240252506A1 (Hoffmann-La Roche Inc., priority 2021, published 2024).

Structures are written as SMILES. Values after ≈ are worked out from the molar mass of the structure shown.

The subject of the first experiment is Escherichia coli ATCC 25922. Briefly: Minimal Inhibitory Concentration (MIC) determination, broth microdilution (CLSI M07-A10). The experiment is classed as cell-based. The note with it: Escherichia coli, ATCC25922, read-out: Escherichia coli growth inhibition MIC, strain Escherichia coli ATCC 25922, 18-24 hours at 35±2° C., lowest concentration for complete growth inhibition (no visible growth). Here is the method:
Minimal Inhibitory Concentration (MIC) Determination:
The MIC of antibacterial compounds against multiple species and strains was determined using the broth microdilution method according to M07-A10 Clinical and Laboratory Standards Institute (CLSI) guidelines, using the appropriate broth medium. In short, the compound plates were prepared by dispensing 100 μL of each stock solution in the first well of a 96 well microtiter plate (MTP) at a concentration 100-fold higher than the final concentration desired in broth. Eleven serial 2-fold dilutions of the highest concentration were made in DMSO for new compounds and in water (or appropriate solution) for reference compounds [2]. 1 μL of each well was transferred in a new MTP, which served as the test plate by subsequent inoculation. This bacterial suspension was prepared from strains that were first sub-cultured on agar plates and incubated for 18-24 hours as appropriate. Following incubation, the inoculum was prepared from isolated colonies and adjusted to 0.5 McFarland turbidity standard (1 to 2×10^8 Colony Forming Units (CFU)/mL) in 0.9% saline. The bacterial suspension was then diluted 1:200 in appropriate sterile medium and within 15 minutes 100 μL/well were dispensed. Negative controls (lack of bacterial cells) and growth control wells (lack of compound) were included in all plates. MTPs were incubated for 18-24 hours at 35±2° C. in ambient air. The MIC value of each compound, expressed as μg/mL, was determined as the lowest concentration required for complete growth inhibition (no visible growth). • [1] CLSI (2015) Methods for dilution antimicrobial susceptibility tests for bacteria that grow aerobically; Approved Standard, Tenth Edition. CLSI Document M7-A10 (ISBN 1-56238-987-4). Wayne, PA: Clinical and Laboratory Standards Institute, 19087, USA. • [2] CLSI (2017) Performance Standards for Antimicrobial Susceptibility Testing; Twenty-Fifth Informational Supplement. CLSI Document M100-S27, CLSI, Wayne, Pennsylvania 19087, USA.
Table 1 provides the Minimal Inhibitory Concentrations (MIC) in micrograms per millilitre of the compounds of present invention obtained against the strain Escherichia coli ATCC 25922.
On the technique in general: In broth dilution the organism is exposed to a series of concentrations in liquid medium.
For the molecule `O=C1COc2ncc(N3CC4(CCN(CC5Cc6cc7nnn(C8CNC8)c7c(F)c6C5)CC4)OC3=O)nc2N1` (single isomer, unassigned) [Example 113, formic acid], the MIC worked out at 0.125 µg/mL (≈ 0.227 µM).

The experiment is the same for the next values; noted with them: Escherichia coli, ATCC25922, strain Escherichia coli ATCC 25922, 18-24 hours at 35±2° C., lowest concentration for complete growth inhibition (no visible growth), read-out: Escherichia coli growth inhibition MIC.
With `NCc1nc2cc3c(c(F)c2o1)CC(CN1CCC2(CC1)CN(c1cnc4c(n1)NC(=O)CO4)C(=O)O2)C3` (single isomer, unassigned) [Example 104, 6-[2-oxo-8-[[2-(aminomethyl)-8-fluoro-6,7-dihydro-5H-cyclopenta[f][1,3]benzoxazol-6-yl]methyl]-1-oxa-3,8-diazaspiro[4.5]decan-3-yl]-4H-pyrazino[2,3-b][1,4]oxazin-3-one], the MIC was 0.125 µg/mL (≈ 0.239 µM). On to `O=C1COc2ncc(N3CC4(CCN(CC5Cc6cc7nc([C@@H]8CCN8)oc7c(F)c6C5)CC4)OC3=O)nc2N1` (single isomer, unassigned) [Example 106], for which the MIC amounted to 0.125 µg/mL (≈ 0.227 µM).

Regarding `O=C1COc2ncc(N3CC4(CCN(CC5Cc6cc7nc([C@H]8CCN8)oc7c(F)c6C5)CC4)OC3=O)nc2N1` (single isomer, unassigned) [Example 108], the MIC came out at 0.25 µg/mL (≈ 0.455 µM). As to `O=C1COc2ncc(N3CC4(CCN(CC5Cc6cc7nn(C8CNC8)nc7c(F)c6C5)CC4)OC3=O)nc2N1` (single isomer, unassigned) [Example 109, 6-[2-oxo-8-[[2-(azetidin-3-yl)-8-fluoro-6,7-dihydro-5H-cyclopenta[f]benzotriazol-6-yl]methyl]-1-oxa-3,8-diazaspiro[4.5]decan-3-yl]-4H-pyrazino[2,3-b][1,4]oxazin-3-one], the MIC came out at 0.5 µg/mL (≈ 0.91 µM). On the same count and under the same terms, the result for `O=C1COc2ccc(N3CC4(CCN(CC5Cc6cc7nc(C8CNC8)oc7c(F)c6C5)CC4)OC3=O)nc2N1` (single isomer, unassigned) [Example 111, 6-[8-[[2-(azetidin-3-yl)-8-fluoro-6,7-dihydro-5H-cyclopenta[f][1,3]benzoxazol-6-yl]methyl]-2-oxo-1-oxa-3,8-diazaspiro[4.5]decan-3-yl]-4H-pyrido[3,2-b][1,4]oxazin-3-one] reads 0.5 µg/mL (≈ 0.911 µM); that for `O=C1COc2ncc(N3CC4(CCN(CC5Cc6cc7nnn(C8CNC8)c7c(F)c6C5)CC4)OC3=O)nc2N1.O=CO` (single isomer, unassigned) [Example 114], 0.25 µg/mL; that for `O=C1COc2ncc(N3CC4(CCN(CC5Cc6cc7c(nnn7C7CNC7)c(F)c6C5)CC4)OC3=O)nc2N1.O=CO` (single isomer, unassigned) [Example 115, 6-[2-oxo-8-[[3-(azetidin-3-yl)-8-fluoro-6,7-dihydro-5H-cyclopenta[f]benzotriazol-6-yl]methyl]-1-oxa-3,8-diazaspiro[4.5]decan-3-yl]-4H-pyrazino[2,3-b][1,4]oxazin-3-one; formic acid], 0.5 µg/mL. As to `CNCCn1nnc2c(F)c3c(c(F)c21)CC(CN1CCC2(CC1)CN(c1cnc4c(n1)NC(=O)CO4)C(=O)O2)C3` (single isomer, unassigned) [Example 118, 6-[2-oxo-8-[[4,8-difluoro-1-[2-(methylamino)ethyl]-6,7-dihydro-5H-cyclopenta[f]benzotriazol-6-yl]methyl]-1-oxa-3,8-diazaspiro[4.5]decan-3-yl]-4H-pyrazino[2,3-b][1,4]oxazin-3-one], the MIC was determined as 0.125 µg/mL (≈ 0.219 µM). For `O=C1COc2ncc(N3CC4(CCN(CC5Cc6c(c(F)c7c(nnn7C7CNC7)c6F)C5)CC4)OC3=O)nc2N1.O=CO` (single isomer, unassigned) [Example 120, 6-[8-[[1-(azetidin-3-yl)-4,8-difluoro-6,7-dihydro-5H-cyclopenta[f]benzotriazol-6-yl]methyl]-2-oxo-1-oxa-3,8-diazaspiro[4.5]decan-3-yl]-4H-pyrazino[2,3-b][1,4]oxazin-3-one; formic acid], the MIC stood at 0.25 µg/mL. The same measure, in the same setting: the result for `O=C1COc2ncc(N3CC4(CCN(CC5Cc6c(c(F)c7c(nnn7CCNC7CC7)c6F)C5)CC4)OC3=O)nc2N1.O=CO` (single isomer, unassigned) [Example 124, 6-[8-[[1-[2-(Cyclopropylamino)ethyl]-4,8-difluoro-6,7-dihydro-5H-cyclopenta[f]benzotriazol-6-yl]methyl]-2-oxo-1-oxa-3,8-diazaspiro[4.5]decan-3-yl]-4H-pyrazino[2,3-b][1,4]oxazin-3-one;formic acid] reads 0.5 µg/mL.

The experiment is the same for the next values; noted with them: strain Escherichia coli ATCC 25922, 18-24 hours at 35±2° C., lowest concentration for complete growth inhibition (no visible growth).
As for `NCCc1nc2cc3c(c(F)c2o1)CC(CN1CCC2(CC1)CN(c1cnc4c(n1)NC(=O)CO4)C(=O)O2)C3` (single isomer, unassigned) [Example 103, 6-[8-[[2-(2-aminoethyl)-8-fluoro-6,7-dihydro-5H-cyclopenta[f][1,3]benzoxazol-6-yl]methyl]-2-oxo-1-oxa-3,8-diazaspiro[4.5]decan-3-yl]-4H-pyrazino[2,3-b][1,4]oxazin-3-one], the “Escherichia coli growth inhibition MIC” value is not above 0.06 µg/mL.

In the case of `NCc1nc2cc3c(c(F)c2o1)CC(CN1CCC2(CC1)CN(c1cnc4c(n1)NC(=O)CO4)C(=O)O2)C3` (single isomer, unassigned) [Example 105, 6-[2-oxo-8-[[2-(aminomethyl)-8-fluoro-6,7-dihydro-5H-cyclopenta[f][1,3]benzoxazol-6-yl]methyl]-1-oxa-3,8-diazaspiro[4.5]decan-3-yl]-4H-pyrazino[2,3-b][1,4]oxazin-3-one], the “Escherichia coli growth inhibition MIC” value amounted to 0.25 µg/mL. Take `O=C1COc2ncc(N3CC4(CCN(CC5Cc6cc7nn(C8CNC8)nc7c(F)c6C5)CC4)OC3=O)nc2N1` (single isomer, unassigned) [Example 110, 6-[2-oxo-8-[[2-(azetidin-3-yl)-8-fluoro-6,7-dihydro-5H-cyclopenta[f]benzotriazol-6-yl]methyl]-1-oxa-3,8-diazaspiro[4.5]decan-3-yl]-4H-pyrazino[2,3-b][1,4]oxazin-3-one]: the “Escherichia coli growth inhibition MIC” value is 1 µg/mL.

On to `O=C1COc2ccc(N3CC4(CCN(CC5Cc6cc7nc(C8CNC8)oc7c(F)c6C5)CC4)OC3=O)nc2N1` (single isomer, unassigned) [Example 112, 6-[8-[[2-(azetidin-3-yl)-8-fluoro-6,7-dihydro-5H-cyclopenta[f][1,3]benzoxazol-6-yl]methyl]-2-oxo-1-oxa-3,8-diazaspiro[4.5]decan-3-yl]-4H-pyrido[3,2-b][1,4]oxazin-3-one], for which the “Escherichia coli growth inhibition MIC” value was 0.5 µg/mL. For `CNCCn1nnc2c(F)c3c(c(F)c21)CC(CN1CCC2(CC1)CN(c1cnc4c(n1)NC(=O)CO4)C(=O)O2)C3` (single isomer, unassigned) [Example 119, 6-[2-oxo-8-[[4,8-difluoro-1-[2-(methylamino)ethyl]-6,7-dihydro-5H-cyclopenta[f]benzotriazol-6-yl]methyl]-1-oxa-3,8-diazaspiro[4.5]decan-3-yl]-4H-pyrazino[2,3-b][1,4]oxazin-3-one], the “Escherichia coli growth inhibition MIC” value is 0.125 µg/mL. For the molecule `O=C1COc2ncc(N3CC4(CCN(CC5Cc6c(c(F)c7c(nnn7CCNC7CC7)c6F)C5)CC4)OC3=O)nc2N1.O=CO` (single isomer, unassigned) [Example 125, 6-[8-[[1-[2-(Cyclopropylamino)ethyl]-4,8-difluoro-6,7-dihydro-5H-cyclopenta[f]benzotriazol-6-yl]methyl]-2-oxo-1-oxa-3,8-diazaspiro[4.5]decan-3-yl]-4H-pyrazino[2,3-b][1,4]oxazin-3-one;formic acid], the “Escherichia coli growth inhibition MIC” value stood at 0.25 µg/mL.

Still in this experiment, the particulars now being: strain Escherichia coli ATCC 25922, 18-24 hours at 35±2° C., lowest concentration for complete growth inhibition (no visible growth), formic acid.
In the case of `O=C1COc2ncc(N3CC4(CCN(CC5Cc6cc7c(nnn7C7CNC7)c(F)c6C5)CC4)OC3=O)nc2N1.O=CO` (single isomer, unassigned) [Example 116, 6-[2-oxo-8-[[3-(azetidin-3-yl)-8-fluoro-6,7-dihydro-5H-cyclopenta[f]benzotriazol-6-yl]methyl]-1-oxa-3,8-diazaspiro[4.5]decan-3-yl]-4H-pyrazino[2,3-b][1,4]oxazin-3-one; formic acid], the “Escherichia coli growth inhibition MIC” value was 0.25 µg/mL.

For the molecule `O=C1COc2ncc(N3CC4(CCN(CC5Cc6c(c(F)c7c(nnn7C7CNC7)c6F)C5)CC4)OC3=O)nc2N1.O=CO` (single isomer, unassigned) [Example 121, 6-[8-[[1-(azetidin-3-yl)-4,8-difluoro-6,7-dihydro-5H-cyclopenta[f]benzotriazol-6-yl]methyl]-2-oxo-1-oxa-3,8-diazaspiro[4.5]decan-3-yl]-4H-pyrazino[2,3-b][1,4]oxazin-3-one; formic acid], the “Escherichia coli growth inhibition MIC” value turned out to be 0.125 µg/mL.
